Source: patent publication EP0705841A1, “Peptides havng antigenic activity against hepatitis A virus (HAV)” (SORIN BIOMEDICA S.p.A., priority 1994, dated 1996)

System: 8F4H9B monoclonal antibody
Assay: ELISA assay: reactivity of peptides adhering to the solid phase with the 8F4H9B monoclonal antibody
Type: binding, mice
Details: peptides in monomer form adhering to solid phase (fig.1, fig.2)
Experimental: The solid phase was obtained on PVC trays (Nunc), that were added with 200 µl of a peptide solution at various concentrations in a carbonate buffer 50 mM, pH 9.6. Trays were incubated overnight at 4°C when added with the monomer peptide solution, and for 2 hours at 37°C when added with the tetramer peptide solution.
Trays were saturated with 300 µl of a solution of gelatin 2%, in Tris-HCl, 0.1M, pH 7.5, for 1 hour at room temperature. Antibodies were diluted in a solution, comprising PBS, EDTA 0.03%, Triton-X100 0.2%, Tween 20 0.2% and BSA fraction V 3.2%; and incubated for 3 hours at 37°C. Trays were washed four times with an ET-System Sorin automatic washer, using PBS/Tween 20 0.1%, and the reaction detected by adding 100 µl of a chromogen and a substrate (Sorin DEIA KIT). The reaction was blocked after 30 min. by adding 200 µl of H₂SO₄ 1N, and the absorbance read at 450 nm.

DFMWMH [peptide 17 (Table 1)]
reactivity with the 8F4H9B-HRP monoclonal antibody: reacted with the antibody, even if having shown a lesser reactivity than the PM peptide

DVMYLH [peptide 36 (Table 1)]
reactivity with the 8F4H9B-HRP monoclonal antibody: reacted with the antibody, even if having shown a lesser reactivity than the PM peptide
